Results reported in publication PMC9301657 (Journal of biochemical and molecular toxicology, 2010).
Where a name gives a salt, the structure may show the parent alone.

Columns and labels:
[1] = target: T1, r-SgAChE1 (Schizaphis graminum acetylcholinesterase-1) (Schizaphis graminum, UniProt Q9BMJ1); assay: Kinetics of substrate hydrolysis; type: biochemical; conditions: for KM of r-SgAChE1 relative to SgAChE purified from the greenbug / Vmax of r-SgAChE1 relative to SgAChE purified from the greenbug: comparison with ref 13; for Km: read-out: KM (Michaelis constant); for Km / Vmax (maximum velocity) / Vmax: room temperature; for Km / Vmax: pH 7.0; for kcat × 10^−3 (turnover rate): values × 10^−3, calculated from molecular mass 64,597 Da and Vmax
[2] = target: T1, r-SgAChE1 (Schizaphis graminum acetylcholinesterase-1); type: biochemical
[3] = target: T1, r-SgAChE1 (Schizaphis graminum acetylcholinesterase-1); assay: Determination of IC50 for inhibition of purified r-SgAChE1; type: biochemical; conditions: room temperature
[4] = tested on: SgAChE purified from the greenbug; conditions: read-out: IC50 against SgAChE; native SgAChE; cited from earlier work
[5] = target: T1, r-SgAChE1 (Schizaphis graminum acetylcholinesterase-1); assay: Inhibitory kinetic constants; type: biochemical; conditions: for k2 (unimolecular rate constant) / ki / ki (bimolecular reaction constant) / ki (bimolecular reaction constant, k2/Kd): ATC substrate, room temperature
[6] = tested on: SgAChE purified from the greenbug; conditions: read-out: KM toward SgAChE; native SgAChE; cited from earlier work

T1 sequence (Q9BMJ1 98-659): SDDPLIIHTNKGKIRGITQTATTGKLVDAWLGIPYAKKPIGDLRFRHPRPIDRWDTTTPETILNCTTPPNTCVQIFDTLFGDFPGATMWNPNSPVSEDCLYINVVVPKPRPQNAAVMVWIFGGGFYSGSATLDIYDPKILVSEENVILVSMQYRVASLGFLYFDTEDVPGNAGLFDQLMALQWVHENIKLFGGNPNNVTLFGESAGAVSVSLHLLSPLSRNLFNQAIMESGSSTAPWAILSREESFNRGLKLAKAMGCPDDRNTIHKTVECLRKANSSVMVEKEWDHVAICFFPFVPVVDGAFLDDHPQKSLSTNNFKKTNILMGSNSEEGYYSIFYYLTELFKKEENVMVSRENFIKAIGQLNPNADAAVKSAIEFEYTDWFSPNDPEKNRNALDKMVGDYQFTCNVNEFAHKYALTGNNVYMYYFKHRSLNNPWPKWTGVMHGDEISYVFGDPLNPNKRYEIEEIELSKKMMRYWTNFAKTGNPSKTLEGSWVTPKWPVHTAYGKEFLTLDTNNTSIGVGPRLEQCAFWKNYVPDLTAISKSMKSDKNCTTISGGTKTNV

CC(=O)SCC[N+](C)(C)C.[I-] [ATC, Acetylthiocholine iodide]
KM of r-SgAChE1 relative to SgAChE purified from the greenbug [1]: 1.53 fold
Vmax of r-SgAChE1 relative to SgAChE purified from the greenbug [1]: 1.7 fold
Km [1]: 88.3 ± 9.6 µM
Vmax (maximum velocity) [1]: 133.2 ± 1.6 U/mg
Vmax [1]: 133.2 ± 1.6 U/mg Protein
kcat × 10^−3 (turnover rate) [1]: 8.60 ± 0.11 min^−1
ATC concentration above which enzymatic activity is inhibited ([2]; substrate inhibition): above 10 mM

CC(=O)SC(C)C[N+](C)(C)C.[I-] (stereo not drawn) [AβMTC, acetyl(β-methyl)thiocholine iodide]
KM of r-SgAChE1 relative to SgAChE purified from the greenbug [1]: 1.88 fold
Vmax of r-SgAChE1 relative to SgAChE purified from the greenbug [1]: 1.6 fold
Km [1]: 114 ± 12.5 µM
Vmax (maximum velocity) [1]: 106.4 ± 3.0 U/mg
Vmax [1]: 106.4 ± 3.0 U/mg Protein
kcat × 10^−3 (turnover rate) [1]: 6.88 ± 0.20 min^−1

CCCC(=O)SCC[N+](C)(C)C.[I-] [BTC, S-butyrylthiocholine iodide]
KM of r-SgAChE1 relative to SgAChE purified from the greenbug [1]: 6.02 fold
Vmax of r-SgAChE1 relative to SgAChE purified from the greenbug [1]: 1.9 fold
Km [1]: 201 ± 21 µM
Vmax (maximum velocity) [1]: 4.4 ± 0.1 U/mg
Vmax [1]: 4.4 ± 0.1 U/mg Protein

C=CC[N+](C)(C)c1ccc(CCC(=O)CCc2ccc([N+](C)(C)CC=C)cc2)cc1 [BW284C51, 1,5-bis(4-allyldimethylammoniumphenyl)-pentan-3-one dibromide]
IC50 ([3]; 5 min incubation): 1660 ± 2 nM
IC50 [4]: 140 nM

CNC(=O)Oc1cccc2ccccc12 [Carbaryl, carbaryl]
IC50 ([3]; IC50, 5 min incubation): 940 ± 5 nM
Kd [5]: 15600 ± 2900 nM
k2 (unimolecular rate constant) [5]: 0.99 ± 0.01 min⁻¹
ki [5]: 1080 ± 67 M⁻¹ s⁻¹

CNC(=O)Oc1ccc2c(c1)[C@]1(C)CCN(C)[C@@H]1N2C.CNC(=O)Oc1ccc2c(c1)[C@]1(C)CCN(C)[C@@H]1N2C.O=S(=O)(O)O [Eserine, eserine hemisulfate]
IC50 ([3]; 5 min incubation): 199 ± 4 nM
IC50 ([3]; 5 min incubation, listed as eserine): 200 nM
k2 (unimolecular rate constant) [5]: 1.58 ± 0.04 min⁻¹
ki [5]: 1670 ± 267 M⁻¹ s⁻¹
ki (bimolecular reaction constant) [5]: 1.00 ± 0.16 × 10^5 M^−1 min^−1
ki (bimolecular reaction constant, k2/Kd) [5]: 1.00 ± 0.16 ×10^−5 M^−1 min^−1
ki (bimolecular reaction constant) ([5]; listed as eserine): (1.00 ± 0.16) × 10^5 M^−1 min^−1
IC50 [4]: 480 nM

CCN(CC)C(C)CN1c2ccccc2Sc2ccccc21 (stereo not drawn) [Ethopropazine, ethopropazine hydrochloride]
IC50 ([3]; IC50, 5 min incubation): 102000 nM

CCOC(=O)CC(SP(=O)(OC)OC)C(=O)OCC (stereo not drawn) [Malaoxon, malaoxon]
IC50 ([3]; IC50, 5 min incubation): 61 nM
Kd [5]: 3400 ± 100 nM
k2 (unimolecular rate constant) [5]: 1.59 ± 0.02 min⁻¹
ki [5]: 7830 ± 217 M⁻¹ s⁻¹
k2 (unimolecular rate constant) ([5]; listed as malaoxon): 1.59 min⁻¹

CCC(=O)SCC[N+](C)(C)C.[I-] [PTC, propionylthio-choline iodide]
KM of r-SgAChE1 relative to SgAChE purified from the greenbug [1]: 2.20 fold
Vmax of r-SgAChE1 relative to SgAChE purified from the greenbug [1]: 2.0 fold
Km [1]: 68.9 ± 7.8 µM
Vmax (maximum velocity) [1]: 76.7 ± 1.0 U/mg
Vmax [1]: 76.7 ± 1.0 U/mg Protein
kcat × 10^−3 (turnover rate) [1]: 4.95 ± 0.07 min^−1
Km [6]: 31.3 ± 3.7 µM

CCOP(=O)(OCC)Oc1ccc([N+](=O)[O-])cc1 [Paraoxon]
k2 (unimolecular rate constant) [5]: 2.76 ± 0.25 min⁻¹
ki [5]: 15100 ± 383 M⁻¹ s⁻¹
ki (bimolecular reaction constant, k2/Kd) [5]: 9.06 ± 0.23 ×10^−5 M^−1 min^−1
k2 (unimolecular rate constant) ([5]; listed as paraoxon): 2.76 min⁻¹

CC(=O)O [acetate]
influence on hydrolytic activity ([2]; range from 1 μM to 100 mM): not much influenced

C[N+](C)(C)CCO [choline, choline chloride]
choline concentration above which the enzyme is inhibited [2]: higher than 20 mM
